This is an account of results in patent publication US9480278B2, “Diet for altering the nutrient composition of feeder insects” (Mark Finke LLC, priority 2012, dated 2016).

Where two headings read alike, the source gives them in different places.

Series [1] concerns feeder insects.
Series [2] in a line: in vivo. Conditions: cricket.
Series [3] is described as follows: Lutein and zeaxanthin in diet versus lutein and zeaxanthin in feeder insect. Conditions: cricket, whole feeder insect (dry matter), oral. As for the experimental part: (§1) An experiment was performed to determine the levels of lutein and zeaxanthin in a feeder insect diet that would produce lutein and zeaxanthin levels in a feeder insect similar to those found in the wild.

Series [4] concerns feeder insects. The series is described as above. Conditions: 64.9 mg/kg lutein in diet. The method, then: as §1
Series [5] deals with feeder insects. Kind of series: Vitamin E level in feeder insects fed diets with varying levels of vitamin E. Conditions: approximately 21 days, fasted 24 to 36 hours. In kind it is in vivo, crickets. As for the experimental part:
Captive insectivores fed with current methods have been shown in past studies to be deficient in vitamin E. Feeder insects which contain between approximately 50 and approximately 200 International Units (“IU”) of vitamin E per kilogram dry matter provide health benefits to captive insectivores. All references in this disclosure to concentrations in feeder insects will be based on dry matter measurements, unless otherwise specified. Experiments were performed to determine the levels of vitamin E in a feeder insect diet that would produce in the feeder insect the targeted levels between 50 and 200 IU of vitamin E per kilogram dry matter for consumption by an insectivore. In the experiments, feeder insects were fasted for 24 to 36 hours prior to analysis to ensure that food in the gut was eliminated completely so as not to affect the results. The feeder insects were provided the diet containing varying levels of vitamin E. Vitamin E analysis was then performed using the method as described by Cort, et. al., Vitamin E Content of Feedstuffs Determined by High-Performance Liquid Chromatography Fluorescence, JOURNAL OF AGRICULTURAL AND FOOD CHEMISTRY, Vol. 31, 1330-1333 (1983).
There is a direct relationship between the vitamin E content in the diet and the vitamin E content in the feeder insect. Since the feeder insects were fasted prior to analysis, and the results were collected when the feeder insects were grown to approximately two-thirds of adult-size within approximately 21 days after introduction of the diet, the vitamin E content in the feeder insect is a result of a change in the composition of the tissues of the feeder insect, rather than the consequence of food in the gut of the feeder insect. Regression analysis was performed on the data to establish a best-fit line defined by an equation FI=0.241*D+33.5, where FI is the vitamin E content of feeder insect and D is the vitamin E content in the feeder insect diet. […]

In series [6] the test system is mealworms. Kind of series: Vitamin E content of mealworms fed a diet containing added vitamin E. In kind it is in vivo. As for the experimental part: There is a direct relationship between the vitamin E content in the diet and the vitamin E content in the feeder insect. Since the feeder insects were fasted prior to analysis, and the results were collected when the feeder insects were grown to approximately two-thirds of adult-size within approximately 21 days after introduction of the diet, the vitamin E content in the feeder insect is a result of a change in the composition of the tissues of the feeder insect, rather than the consequence of food in the gut of the feeder insect. Regression analysis was performed on the data to establish a best-fit line defined by an equation FI=0.241*D+33.5, where FI is the vitamin E content of feeder insect and D is the vitamin E content in the feeder insect diet. According to the present inventive method, with this established equation, a diet, fed to the feeder insect, having a vitamin E content of between approximately 69 and approximately 691 IU per kilogram produces the targeted 50 to 200 IU of vitamin E per kilogram dry matter in the feeder insect, respectively.

[7] abbreviates: 3 milligrams of beta-carotene per kilogram of feeder insect diet.
The mark [8] stands for this setting: 65 milligrams of beta-carotene per kilogram of feeder insect diet.

On to `CC1=C(/C=C/C(C)=C/C=C/C(C)=C/C=C/C=C(C)/C=C/C=C(C)/C=C/C2=C(C)CCCC2(C)C)C(C)(C)CCC1` [Beta-carotene, beta-carotene], for which the entries for the “share of poultry's vitamin A requirement, by regression” value in series [1] (setting [7]) and in series [1] (setting [8]) were “approximately 78%” and “approximately 1600%”, respectively. Besides, the “share of the rat's vitamin A requirement, by regression” value is listed as “approximately 51%” in series [1] (setting [7]) and “approximately 1000%” in series [1] (setting [8]). Further, the “vitamin A yielded in feeder insect, by regression” value is listed as 1,173 IU of vitamin A per kilogram dry matter in series [1] (setting [7]) and 23,000 IU of vitamin A per kilogram dry matter in series [1] (setting [8]). The concentration at 21 days in series [2] (0.2 mg/kg diet, Beta-carotene in Feeder Insect, 0.2 mg/kg beta-carotene in diet) was determined as 33.3 ng/g; in series [2] (0.3 mg/kg diet, Beta-carotene in Feeder Insect, 0.3 mg/kg beta-carotene in diet) it was 33.3 ng/g; in series [2] (3 mg beta-carotene per kg diet, beta-carotene in feeder insect by regression FI=219.2×D-2.92, 3 milligrams of beta-carotene per kilogram of feeder insect diet) it was 655 ng/g; in series [2] (11.7 mg/kg diet, Beta-carotene in Feeder Insect, 11.7 mg/kg beta-carotene in diet), 2720 ng/g; in series [2] (15.3 mg/kg diet, Beta-carotene in Feeder Insect, 15.3 mg/kg beta-carotene in diet), 3230 ng/g; in series [2] (65 mg beta-carotene per kg diet, beta-carotene in feeder insect by regression FI=219.2×D-2.92, 65 milligrams of beta-carotene per kilogram of feeder insect diet), 14300 ng/g. Also, the concentration at 21 days in series [2] (beta-carotene in feeder insect by regression from Table C, diet with approximately 0.3 to approximately 1,496.4 milligrams of beta-carotene per kilogram) was 62.8 to 328000 ng/g; in series [2] (beta-carotene in feeder insect by regression from Table C, diet with approximately 68.4 to approximately 365 milligrams of beta-carotene per kilogram), 15000 to 80000 ng/g.
Consider `CC1=C[C@H](O)CC(C)(C)[C@H]1/C=C/C(C)=C/C=C/C(C)=C/C=C/C=C(C)/C=C/C=C(C)/C=C/C1=C(C)C[C@@H](O)CC1(C)C` [Lutein, lutein], for which the concentration at 21 days in series [3] (11.6 mg/kg diet) came out at 33 ng/g; in series [3] (13.3 mg/kg diet) it was 333 ng/g; in series [3] (193.6 mg/kg diet), 11300 ng/g. Further, the Lutein in Feeder Insect in series [4] stood at 800 µg/kg dry matter.
As to vitamin E, the figures for the “Vitamin E in Feeder Insect” value in series [5] (31 IU/kg vitamin E in diet), in series [5] (210 IU/kg vitamin E in diet) and in series [5] (360 IU/kg vitamin E in diet) were 38.7 IU/kg dry matter, 89.2 IU/kg dry matter and 117.7 IU/kg dry matter, respectively. Besides, the “vitamin E content compared with mealworms fed a control diet” value in series [6] is “more vitamin E”.
